Results as given in ChEMBL document CHEMBL4364355, “New Negamycin-Based Potent Readthrough Derivative Effective against TGA-Type Nonsense Mutations” (ACS Med Chem Lett, 2019).
Calls of active or inactive are those of the source. No cut-off for these calls is given here.

Key:
Assay type in all cases: cell-based
Mus musculus [1] = species on record: Mus musculus; assay: (§1) Induction of read through activity at premature termination codon TGA (non-sense mutation associated with DMD disease) in 27-mer DNA stretch sequence of mouse dystrophin mdx gene transfected as a plasmid by connecting with beta-galactosidase and luciferase genes in COS7 cells assessed as ratio of luciferase activity to beta-galactosidase activity at 200 uM incubated for 48 hrs by dual luciferase reporter gene assay relative to control
Mus musculus [2] = species on record: Mus musculus; assay: as §1, with “TAG” for “TGA”
Mus musculus [3] = species on record: Mus musculus; assay: as §1, with “TAA” for “TGA”
Homo sapiens [4] = species on record: Homo sapiens; assay: Induction of read through activity at premature termination codon TGA in human RLuc-LAMA2 C1546X non-sense mutation sequence transfected in COS7 cells at 200 uM incubated for 48 hrs by dual luciferase reporter gene assay relative to control
HDQ-P1 [5] = assay: (§2) Induction of read through activity at premature termination codon TGA in human HDQ-P1 cells harboring TP53 R213X homozygous non-sense mutation sequence assessed as expression of full length p53 protein at 100 uM incubated for 72 hrs by automated capillary electrophoresis western analysis relative to vinculin expression
Homo sapiens [6] = species on record: Homo sapiens; assay: Induction of read through activity at premature termination codon TGA in human RLuc-CF G542X non-sense mutation sequence transfected in COS7 cells at 200 uM incubated for 48 hrs by dual luciferase reporter gene assay relative to control
HDQ-P1 [7] = assay: Induction of read through activity at premature termination codon TGA in human HDQ-P1 cells harboring TP53 R213X homozygous non-sense mutation sequence at 200 uM incubated for 72 hrs by automated capillary electrophoresis western analysis relative to G418
HDQ-P1 [8] = assay: as §2, with “12.5” for “100”
Mus musculus [9] = species on record: Mus musculus; assay: as §1, with “cells” for “cells assessed as ratio of luciferase activity to beta-galactosidase activity at 200 uM”, “assay” for “assay relative to control”
Homo sapiens [10] = species on record: Homo sapiens; assay: Induction of read through activity at premature termination codon TGA in human RLuc-DMD R3381X non-sense mutation sequence transfected in COS7 cells at 200 uM incubated for 48 hrs by dual luciferase reporter gene assay relative to control
HDQ-P1 [11] = assay: as §2, with “200” for “100”
HDQ-P1 [12] = assay: as §2, with “25” for “100”
HDQ-P1 [13] = assay: as §2, with “50” for “100”
Mus musculus [14] = species on record: Mus musculus; assay: as §1, with “cells” for “cells assessed as ratio of luciferase activity to beta-galactosidase activity at 200 uM”, “(+)-negamycin” for “control”
Homo sapiens [15] = species on record: Homo sapiens; assay: Induction of read through activity at premature termination codon TGA in human RLuc-CF W1282X non-sense mutation sequence transfected in COS7 cells at 200 uM incubated for 48 hrs by dual luciferase reporter gene assay relative to control
Mus musculus [16] = species on record: Mus musculus; assay: as §1, with “cells” for “cells assessed as ratio of luciferase activity to beta-galactosidase activity at 200 uM”, “TGP112” for “control”
Mus musculus [17] = species on record: Mus musculus; assay: as §1, with “cells” for “cells assessed as ratio of luciferase activity to beta-galactosidase activity at 200 uM”, “(+)-G418” for “control”
Homo sapiens [18] = species on record: Homo sapiens; assay: Induction of read through activity at premature termination codon TAG in human RLuc-TP53 Q192X non-sense mutation sequence transfected in COS7 cells at 200 uM incubated for 48 hrs by dual luciferase reporter gene assay relative to control
Homo sapiens [19] = species on record: Homo sapiens; assay: Induction of read through activity at premature termination codon TGA in human RLuc-TP53 R213X non-sense mutation sequence transfected in COS7 cells at 200 uM incubated for 48 hrs by dual luciferase reporter gene assay relative to control
HDQ-P1 [20] = assay: Cytotoxicity against human HDQ-P1 cells at 200 uM; conditions: hdq-p1, 200 µM
COS-7 = assay: Cytotoxicity against African green monkey COS7 cells assessed as decrease in cell viability by WST1 assay; conditions: Chlorocebus aethiops

SMILES: CN(CC(=O)O)NC(=O)C[C@H](CCN)NC(=O)[C@@H](N)CN
- Ratio (Mus musculus [1]): 3.02

SMILES: CC(C)C[C@H](N)C(=O)N[C@@H](CCCN)CC(=O)NN(C)CC(=O)O
- Ratio (Mus musculus [2]): 1.3
- Ratio (Mus musculus [1]): 2.3
- Ratio (Mus musculus [3]): 1.11

SMILES: CCCC[C@H](N)C(=O)N[C@@H](CCN)CC(=O)NN(C)CC(=O)O
- Ratio (Mus musculus [1]): 4.21

SMILES: CC(C)C[C@H](N)C(=O)N[C@@H](CCN)CC(=O)NN(C)CC(=O)O
- Ratio (Mus musculus [1]): 4.94

SMILES: CN(CC(=O)O)NC(=O)C[C@H](CCN)NC(=O)[C@@H](N)CC(=O)O
- Ratio (Mus musculus [1]): 1.96

SMILES: CN(CC(=O)O)NC(=O)C[C@H](N)C[C@@H](O)CN
- Ratio (Mus musculus [2]): 1.17
- Ratio (Mus musculus [1]): 1.47 to 2.25
- Ratio (Mus musculus [3]): 1.13

SMILES: CC(C)C[C@@H](N)C(=O)N[C@@H](CCN)CC(=O)NN(C)CC(=O)O
- Ratio (Mus musculus [1]): 1.46

SMILES: CN(CC(=O)O)NC(=O)C[C@H](CCN)NC(=O)[C@@H](N)CCN
- Ratio (Mus musculus [1]): 3.25

SMILES: CC(C)[C@H](N)C(=O)N[C@@H](CCN)CC(=O)NN(C)CC(=O)O
- Ratio (Mus musculus [1]): 2

SMILES: CN(CC(=O)O)NC(=O)C[C@H](CCN)NC(=O)[C@@H](N)CCCN
- Ratio (Mus musculus [1]): 2.96

SMILES: CC[C@H](C)[C@H](N)C(=O)N[C@@H](CCN)CC(=O)NN(C)CC(=O)O
- Ratio (Mus musculus [1]): 1.83

SMILES: CCCCCCCCC[C@H](N)C(=O)N[C@@H](CCN)CC(=O)NN(C)CC(=O)O
- Activity (Homo sapiens [4]): 6.34%
- Ratio (HDQ-P1 [5]): 48
- Activity (Homo sapiens [6]): 2.25 to 7.3%
- Ratio (HDQ-P1 [7]): 3
- Ratio (HDQ-P1 [8]): 2.3
- Activity (Mus musculus [9]): Dose-dependent effect
- Activity (Homo sapiens [10]): 2.25 to 7.3%
- Ratio (HDQ-P1 [11]): 215
- Ratio (HDQ-P1 [12]): 2.4
- Ratio (Mus musculus [2]): 4.39
- Ratio (Mus musculus [1]): 16 to 18.3
- Ratio (HDQ-P1 [13]): 6.7
- Ratio (Mus musculus [14]): 10
- Activity (Homo sapiens [15]): inactive
- Ratio (Mus musculus [16]): 4
- Ratio (Mus musculus [3]): 2.24
- Ratio (Mus musculus [17]): 2
- Activity (Homo sapiens [18]): inactive
- Activity (Homo sapiens [19]): 2.25 to 7.3%

SMILES: CCCCCCC[C@H](N)C(=O)N[C@@H](CCN)CC(=O)NN(C)CC(=O)O
- Ratio (Mus musculus [1]): 7.97
- Ratio (Mus musculus [16]): 2

SMILES: CN[C@@H](CC(C)C)C(=O)N[C@@H](CCN)CC(=O)NN(C)CC(=O)O
- Ratio (Mus musculus [1]): 2.45

SMILES: CN[C@H]1[C@H](O)[C@H](O[C@@H]2[C@@H](O)[C@H](O[C@H]3O[C@H]([C@@H](C)O)[C@@H](O)[C@H](O)[C@H]3N)[C@@H](N)C[C@H]2N)OC[C@@]1(C)O
- Activity (Homo sapiens [4]): 1.62 to 7.25%
- Activity (Homo sapiens [6]): 1.62 to 7.25%
- Activity (Homo sapiens [10]): 1.62 to 7.25%
- Ratio (HDQ-P1 [11]): 72
- Activity (HDQ-P1 [20]): Non-Toxic
- Ratio (Mus musculus [2]): 7.86
- Ratio (Mus musculus [1]): 7.43 to 7.99
- Activity (Homo sapiens [15]): 1.62 to 7.25%
- Ratio (Mus musculus [3]): 4.78
- Activity (Homo sapiens [18]): 1.62 to 7.25%
- Activity (Homo sapiens [19]): 1.62 to 7.25%

SMILES: CCCCCCCCCCC[C@H](N)C(=O)N[C@@H](CCN)CC(=O)NN(C)CC(=O)O
- IC50 (COS-7): 68.2 µM

SMILES: CC(C)CCC(=O)N[C@@H](CCN)CC(=O)NN(C)CC(=O)O
- Ratio (Mus musculus [1]): 2.82

SMILES: C[C@H](N)C(=O)N[C@@H](CCN)CC(=O)NN(C)CC(=O)O
- Ratio (Mus musculus [1]): 2.4

SMILES: CN(CC(=O)O)NC(=O)C[C@H](CCN)NC(=O)[C@@H](N)CCCCN
- Ratio (Mus musculus [1]): 2.49

SMILES: CN(CC(=O)O)NC(=O)C[C@H](CCN)NC(=O)[C@@H](N)CCC(=O)O
- Ratio (Mus musculus [1]): 1.8

SMILES: CN(CC(=O)O)NC(=O)C[C@H](CCN)NC(=O)[C@@H](N)Cc1ccccc1
- Ratio (Mus musculus [1]): 2.99

SMILES: CN(CC(=O)O)NC(=O)C[C@@H](N)CCN
- Activity (Homo sapiens [4]): 1.85%
- Ratio (HDQ-P1 [11]): 7.9
- Ratio (Mus musculus [2]): 1.48
- Ratio (Mus musculus [1]): 3.8 to 4.26
- Ratio (Mus musculus [3]): 1.2
- Activity (Homo sapiens [19]): 1.95%

SMILES: CCCCC[C@H](N)C(=O)N[C@@H](CCN)CC(=O)NN(C)CC(=O)O
- Ratio (Mus musculus [1]): 3.4

SMILES: CN(CC(=O)O)NC(=O)C[C@H](CCN)NC(=O)CN
- Ratio (Mus musculus [1]): 2.74

SMILES: CN(CC(=O)O)NC(=O)C[C@H](CCN)NC(=O)[C@@H](N)CO
- Ratio (Mus musculus [1]): 1.48

SMILES: CN(CC(=O)O)NC(=O)C[C@H](CCN)NC(=O)[C@@H](N)CC1CCCCC1
- Ratio (Mus musculus [1]): 5.87

SMILES: CN(CC(=O)O)NC(=O)C[C@H](CCN)NC(=O)[C@@H](N)CC(N)=O
- Ratio (Mus musculus [1]): 2.21

SMILES: CN(CC(=O)O)NC(=O)C[C@H](CCN)NC(=O)[C@@H](N)Cc1ccc(O)cc1
- Ratio (Mus musculus [1]): 2.59

SMILES: CN(CC(=O)O)NC(=O)C[C@H](CCN)NC(=O)[C@@H](N)CCC(N)=O
- Ratio (Mus musculus [1]): 1.62
